# System: fibroblastes de peau humaine (ATCC No CRL 1513)
# Assay: SAMe formation in cultured human skin fibroblasts with increasing betaine concentrations (HPLC determination)
# Assay type: cell-based
# Conditions: for Concentration de SAMe: 6 days culture, control without bétaïne 0,54
# Method: L'effet exercé par la bétaïne sur la formation de SAMe a été mis en évidence par les résultats obtenus à des concentrations croissantes de bétaïne dans des fibroblastes de peau humaine (ATCC No CRL 1513) en culture. Plus précisément, les cellules (2.10⁴/ml) ont été mises en culture pendant 6 jours dans 250 ml de milieu de culture Dulbecco's Modified Eagle Medium (DMEM) contenant 20 % de sérum de veau foetal, en présence de concentrations croissantes (de 10⁻⁵ M à 5.10⁻⁴ M) de bétaïne. Au terme de la culture, les cellules ont été décollées à la trypsine (0,05 %) et à l'EDTA (0,02 %) et centrifugées. Le surnageant a été récupéré et précipité à l'acide trichloroacétique (0,2 N, v/v) puis centrifugé à nouveau. Le surnageant a été ensuite récupéré et lyophylisé. Les lyophylisats ont été repris avec de l'eau et analysés en HPLC (Colonne : Nucléosyl C8; Eluant : Solvant A (acétate de sodium 8,2 g; octylsulfonate de sodium 200 mg; acide citrique 4,2 g; EDTA 50 mg; eau q.s. pour 1 litre) 95 % et Solvant B (méthanol) 5 %) en utilisant un détecteur à 260 nm. La quantité de SAMe a été déterminée d'après une gamme étalon traitée dans les mêmes conditions expérimentales.
compound,measurement,setting,value
"C[N+](C)(C)CC(=O)[O-] [bétaïne, (CH₃)₃N⁺-CH₂-COO⁻]",Concentration de SAMe,Concentration de bétaïne 1 (10⁻⁵ M),"0,62 nMoles/10⁷ cellules"
same,Concentration de SAMe,Concentration de bétaïne 5 (10⁻⁵ M),"0,94 nMoles/10⁷ cellules"
same,Concentration de SAMe,Concentration de bétaïne 10 (10⁻⁵ M),"1,72 nMoles/10⁷ cellules"
same,Concentration de SAMe,Concentration de bétaïne 50 (10⁻⁵ M),"1,90 nMoles/10⁷ cellules"
same,quantité d'adémétionine des fibroblastes de peau humaine,"in vitro, even at very low concentrations",agit significativement
